Data as given in patent publication US20230302014A1, “USES OF GLUCOCORTICOID RECEPTOR (GR) ANTAGONIST AND ANDROGEN RECEPTOR (AR) DEGRADER COMBINATIONS” (ORIC Pharmaceuticals, Inc., priority 2020, published 2023).

Columns and labels:
CWR22PC cells = assay: Cell growth (cell number) of prostate cancer cells under long-term treatment; type: cell-based, Human; details: CSS media; for R1881-induced cell growth: CWR22PC, + 0.5 µM compound 1
Experimental: (§1) CWR22PC cells were seeded at a density of 2 × 10^5 cells/well in 6-well plates (Corning# 3516) in 2 mL of RPMI-1640 media supplemented with 10% charcoal-stripped serum (CSS) in duplicate. 24 hours later, cells were treated with 100 pM R1881, 30 nM dexamethasone, 0.5 µM compound 1, 1 µM of ARD1 or ARD2, or combinations thereof as indicated. Fresh media containing the indicated treatment was replaced every 5-7 days. Cell supernatant was collected on Day 12 and 19 and stored at -80° C. for PSA AlphaLISA assay. Cell images were taken on Day 12 and 19 using Leica DMi8 microscope (LEICA MICROSYSTEMS, INC. IL) with a 10X magnification. Cells were then trypsinized and cell numbers in each treatment group were counted three times, average counts were plotted with GraphPad Prism 8. Cell pellets were washed once with 1XPBS and then lysed in 600 µL RLT RNA lysis buffer and stored at -80° C. RNA was extracted for end of study (EOS) biomarker analysis for which the detailed procedures are described in the section RNA Extraction and RT-qPCR analysis.
The impact of ARD1 and ARD2 on the growth of prostate cancer cells was explored. CWR22PC cells were plated in charcoal-stripped serum (CSS) media and treated with vehicle or 0.1 nM R1881 (synthetic AR ligand) without or with 1 µM of ARD1 or ARD2. Media with treatments were replaced every 5-7 days and cells were maintained at 37° C. for 22 days. Supernatant of each group was harvested at day 22 to measure PSA secretion by PSA AlphaLISA assays.
as §1, with “24 hours later, cells were treated with 100 pM R1881, 30 nM dexamethasone, 0.5 µM compound 1, 1 µM of ARD1 or ARD2, or combinations thereof as indicated.” left out, “15” for “12”, “21” for “19”, “assay.” for “assay. Cell images were taken on Day 12 and 19 using Leica DMi8 microscope (LEICA MICROSYSTEMS, INC. IL) with a 10X magnification.”

PSA = PSA AlphaLISA assay of cell supernatant (PSA secretion); type: cell-based, Human; details: CSS media; for R1881-induced PSA secretion: CWR22PC, + 0.5 µM compound 1
GR = molecular target: T1, GR (Homo sapiens, UniProt P04150); details: prostate cancer models with GR upregulated, in response to glucocorticoids; Zhou et al. 2019; cited from earlier work
T1 sequence (P04150 1-777): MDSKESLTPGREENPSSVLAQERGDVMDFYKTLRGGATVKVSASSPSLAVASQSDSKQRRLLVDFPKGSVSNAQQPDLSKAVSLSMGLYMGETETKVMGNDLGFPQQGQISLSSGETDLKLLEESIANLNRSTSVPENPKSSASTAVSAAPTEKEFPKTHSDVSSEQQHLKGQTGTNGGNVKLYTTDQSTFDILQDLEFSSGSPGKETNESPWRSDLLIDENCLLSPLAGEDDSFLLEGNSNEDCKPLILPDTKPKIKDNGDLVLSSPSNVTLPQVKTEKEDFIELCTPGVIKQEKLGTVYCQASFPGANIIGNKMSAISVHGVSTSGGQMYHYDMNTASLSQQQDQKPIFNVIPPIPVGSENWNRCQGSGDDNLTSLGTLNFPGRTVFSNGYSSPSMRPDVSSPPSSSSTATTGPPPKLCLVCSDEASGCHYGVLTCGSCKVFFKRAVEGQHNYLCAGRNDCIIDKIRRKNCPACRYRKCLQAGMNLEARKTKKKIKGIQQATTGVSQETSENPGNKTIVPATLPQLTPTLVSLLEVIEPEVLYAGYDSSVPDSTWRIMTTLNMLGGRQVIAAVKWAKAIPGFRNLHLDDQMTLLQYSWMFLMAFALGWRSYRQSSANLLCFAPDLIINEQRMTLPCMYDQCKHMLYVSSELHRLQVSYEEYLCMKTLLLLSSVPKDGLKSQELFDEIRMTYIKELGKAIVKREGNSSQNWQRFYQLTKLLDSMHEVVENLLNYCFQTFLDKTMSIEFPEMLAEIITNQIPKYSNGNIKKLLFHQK

[1] = test system: AR and/or GR target genes KLK4, KLF9, FKBP5, PER1, SGK1; assay: Biomarker analysis by RT-qPCR, 48 hours; type: cell-based, Human; details: CWR22PC and 22Rv1 cells
Experimental: CWR22PC and 22RV1 cells were seeded at a density of 2 × 10^5 cells/well in 6-well plates in 2 mL of RPMI-1640 media supplemented with 10% charcoal-stripped serum (CSS). Cells were treated with 100 pM R1881, 30 nM dexamethasone, 0.5 µM compound 1, 1 µM of ARD1 or ARD2, or combinations thereof as indicated and maintained at 37° C. 48 hours later, media was removed, and cells were washed once with PBS and then harvested for mRNA analysis.
(§2) Adherent cells or cell pellets harvested for mRNA analysis were first washed once with PBS and then resuspended in 600 µL of RLT lysis buffer (Qiagen Inc.) supplemented with 1% of betamercaptoethanol. RNA was extracted by QIAcube using the RNeasy Mini QIAcube kit (Qiagen#74116) according to manufacturer’s instructions. The extracted RNA samples were then quantified using a Nanodrop 8000 Spectrophotometer. RT-qPCR reactions were set up in triplicate using 3 µL of 3 ng/ µL of RNA in 7 µL of pre-mixed SensiFAST™ SYBR No-ROX One-Step Kit reagents (BIOLINE# BIO-98005). The RT-qPCR reactions were run on a Bio-Rad CFX384 Real-Time PCR System and data was plotted with GraphPad Prism 8 software.
CWR22PC and 22Rv1 cells were seeded at a density of 2 × 10^5 cells/well in 6-well plates in 2 mL of RPMI-1640 media supplemented with 10% charcoal-stripped serum (CSS). […] 48 hours later, media was removed, and cells were washed once with PBS and then harvested for mRNA analysis.

[2] = test system: AR and GR target genes in CWR22PC cells; assay: End of study (EOS) biomarker analysis by RT-qPCR; type: cell-based, Human; details: CSS media, + 0.5 µM compound 1
Experimental: as §1, §2
CWR22PC cells were seeded at a density of 2 × 10^5 cells/well in 6-well plates (Corning# 3516) in 2 mL of RPMI-1640 media supplemented with 10% charcoal-stripped serum (CSS) in duplicate. […] Cells were then trypsinized and cell numbers in each treatment group were counted three times, average counts were plotted with GraphPad Prism 8. […]

[3] = test system: AR target genes KLK3, KLK4, NKX3.1, FKBP5; assay: Target gene assay (RT-qPCR, R1881-induced AR target genes); type: cell-based, Human; details: 100 pM R1881, 24 hours post treatment
Experimental: (§3) 10,000 LNCaP and CWR22PC cells per well were plated in triplicate in poly-lysine coated 96-well plates (ThermoFisher#152039) in 200 µL of RPMI-1640 media supplemented with 10% charcoal-stripped serum. 24 hours later, cells were treated with 100 pM of R1881 and 8-point dilution for enzalutamide, ARD1 or ARD2 with concentrations ranging from 1 µM to 0.46 nM. After incubation at 37° C. for 24 hours, media was removed, and cells were washed once with PBS. 55 µL per well of iScript RT-qPCR sample preparation reagent (Bio-Rad #1708898) was added and incubated for 2 minutes before lysate was collected for mRNA analysis. RT-qPCR was set up in triplicate using 3 µL of lysate plus 7 µL of pre-mixed SensiFAST™ SYBR No-ROX One-Step Kit reagents (BIOLINE, Cat# BIO-98005) per reaction. The RT-qPCR reactions were run on a Bio-Rad CFX384 Real-Time PCR System and data was plotted with GraphPad Prism 8 software.
as §3, with “15,000” for “10,000”, “24 hours later, cells were treated with 100 pM of R1881 and 8-point dilution for enzalutamide, ARD1 or ARD2 with concentrations ranging from 1 µM to 0.46 nM.” left out, “75” for “55”

[4] = 19 days, 0.1 nM R1881 + 1 µM ARD1 or ARD2, + 30 nM dexamethasone
[5] = 21 days, 0.1 nM R1881 + 1 µM ARV-110, + 30 nM dexamethasone

## C[C@]1(O)CC[C@H]2[C@@H]3CCC4=CC(=O)CCC4=C3C=C[C@@]21C [Compound R1881]
CWR22PC cells; 0.1 nM R1881 without or with 1 µM ARD1 or ARD2, 22 days
  CWR22PC cell growth: promotes
PSA; CWR22PC cells, 0.1 nM R1881 without or with 1 µM ARD1 or ARD2, day 22
  PSA secretion: promotes

## CC(C)N(C)c1ccc([C@H]2C[C@@]3(C)[C@@H](CC[C@@]3(O)C#CC(C)(C)C)[C@@H]3CCC4=CC(=O)CC[C@@H]4[C@H]32)cc1 [Compound 1]
GR
  sensitivity to enzalutamide treatment: restores sensitivity to enzalutamide treatment
CWR22PC cells; [4]
  R1881-induced cell growth: fully reverses
CWR22PC cells; [5]
  R1881-induced cell growth: fully reverses
[1]; 0.5 µM compound 1 in the presence of 1 µM ARD1 or ARD2, 0.1 nM R1881, 30 nM DEX
  DEX-induced GR and AR target gene expression: fully reverses
[1]; 0.5 µM compound 1 in the presence of 1 µM ARV-110, 0.1 nM R1881, 30 nM DEX
  DEX-induced GR and AR target gene expression: fully reverses
PSA; [4]
  R1881-induced PSA secretion: fully reverses
PSA; [5]
  R1881-induced PSA secretion: fully reverses
[2]; day 19 EOS, 0.1 nM R1881 + 1 µM ARD1 or ARD2, + 30 nM dexamethasone
  R1881-induced target gene (biomarker) expression: fully reverses
[2]; day 21 EOS, 0.1 nM R1881 + 1 µM ARV-110, + 30 nM dexamethasone
  R1881-induced target gene (biomarker) expression: fully reverses

## CNC(=O)c1ccc(N2C(=S)N(c3ccc(C#N)c(C(F)(F)F)c3)C(=O)C2(C)C)cc1F [Enzalutamide, enzalutamide]
[3]; CWR22PC cells
  AR target gene FKBP5 induced by R1881: inhibit
  AR target gene KLK3 induced by R1881: inhibit
  AR target gene KLK4 induced by R1881: inhibit
  AR target gene NKX3.1 induced by R1881: inhibit
[3]; LNCaP cells
  AR target gene FKBP5 induced by R1881: inhibit
  AR target gene KLK3 induced by R1881: inhibit
  AR target gene KLK4 induced by R1881: inhibit
  AR target gene NKX3.1 induced by R1881: inhibit
